Measured values taken from BigSolDB 2.1.

SMILES	solubility (mole fraction) (in 2-butanone, 298 K)	solubility (mole fraction) (in 2-butanone, 303 K)	solubility (mole fraction) (in 2-butanone, 308 K)	solubility (mole fraction) (in 2-butanone, 313 K)	solubility (mole fraction) (in 2-butanone, 318 K)	solubility (mole fraction) (in acetonitrile, 298 K)	solubility (mole fraction) (in acetonitrile, 303 K)	solubility (mole fraction) (in acetonitrile, 308 K)	solubility (mole fraction) (in acetonitrile, 313 K)	solubility (mole fraction) (in acetonitrile, 318 K)	solubility (mole fraction) (in isopropanol, 298 K)	solubility (mole fraction) (in isopropanol, 303 K)	solubility (mole fraction) (in isopropanol, 308 K)	solubility (mole fraction) (in isopropanol, 313 K)	solubility (mole fraction) (in isopropanol, 318 K)
c1ccc2cc3ccccc3cc2c1	0.00477	0.00591	0.00712	0.0085	0.0134	0.00066	0.00093	0.00135	0.00196	0.0027	0.00034	0.00044	0.00061	0.00081	0.00111
O=C1c2ccccc2C(=O)c2ccccc21	0.00054	0.00062	0.00075	0.00087	0.001	0.00022	0.00026	0.00032	0.00039	0.00048	8e-05	0.0001	0.00012	0.00015	0.00018
